Our source for the IC50 values is patent publication US20240409585A1, “MACROCYCLIC IMMUNOMODULATORS” (priority 2021, published 2024).

Numbered stars: 1 amine (or outer) side, 2 acyl side, 3 side chain; on linkers, the order of the positions; unused ones are H or OH. Bridge positions count the residues as written; N and C are the ends. Square brackets hold non-standard residues; d marks the D form. Peptide text beside a SMILES is read from it. * marks the point of attachment. ξ: configuration not given here. Phe(3-CF3) = N[C@@H](Cc1cccc(C(F)(F)F)c1)C(=O)O; Phe(4-COOH) = N[C@@H](Cc1ccc(C(=O)O)cc1)C(=O)O; Bip = N[C@@H](Cc1ccc(-c2ccccc2)cc1)C(=O)O; Phe(3-CN) = N#Cc1cccc(C[C@H](N)C(=O)O)c1; Phe(3-F) = N[C@@H](Cc1cccc(F)c1)C(=O)O; Phe(3-Me) = Cc1cccc(C[C@H](N)C(=O)O)c1; NMeY = CN[C@@H](Cc1ccc(O)cc1)C(=O)O; Val(3-OH) = CC(C)(O)[C@H](N)C(=O)O; X49 = O=C(C(N[*:1])C1CCOCC1)[*:2]; h4Pal = N[C@@H](CCc1ccncc1)C(=O)O; 4Pal = N[C@@H](Cc1ccncc1)C(=O)O; Cha = N[C@@H](CC1CCCCC1)C(=O)O; Cit = NC(=O)NCCC[C@H](N)C(=O)O; Ile(3ξ) = CCC(C)[C@H](N)C(=O)O; Thr(3ξ) = CC(O)[C@H](N)C(=O)O; Carboxymethyl = O=C(O)C*; NMeA = CN[C@@H](C)C(=O)O; Orn = NCCC[C@H](N)C(=O)O; Dab = NCC[C@H](N)C(=O)O; Dap = NC[C@H](N)C(=O)O

One may read the IC50 as the concentration that inhibits the measured activity by half.

This assay has as its target T1, PE-labeled human PD-L1-Ig binding to Jurkat cell line over-expressing human PD-1 (Jurkat-PD-1) (Homo sapiens, UniProt Q15116).
T1 construct: expressed in transfected cells; host or cells: Jurkat
Nature of the assay: Jurkat-PD-1 Cell Binding High-Content Screening Assay (CBA): Method 1. The conditions noted are these: Jurkat-hPD-1 cells, PE-labeled PD-L1-Ig 20 nM final; read-out: Jurkat HPDL1 PD1 IC50 (uM) (Method 1).

T1 sequence (Q15116 25-288): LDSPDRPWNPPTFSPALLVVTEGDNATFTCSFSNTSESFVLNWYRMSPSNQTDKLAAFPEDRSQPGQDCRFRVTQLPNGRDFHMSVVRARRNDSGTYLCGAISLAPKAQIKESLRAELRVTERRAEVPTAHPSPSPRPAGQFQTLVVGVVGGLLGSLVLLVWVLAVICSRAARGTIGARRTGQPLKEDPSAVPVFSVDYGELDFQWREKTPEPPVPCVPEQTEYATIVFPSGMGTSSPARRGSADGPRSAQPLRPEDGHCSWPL

Consider `Cc1cccc(C[C@@H]2NC(=O)[C@H](CC(=O)O)NC(=O)[C@H](Cc3ccc(OCC(=O)O)cc3)NC(=O)[C@H](CC(N)=O)NC(=O)CSC[C@@H](C(N)=O)NC(=O)[C@H](CCCN)NC(=O)[C@H](C(C)C)NC(=O)[C@H](CC3CCCCC3)NC(=O)[C@H](CCN)NC(=O)[C@@H](CC(C)C)NC(=O)[C@H](C)N(C)C(=O)[C@H](Cc3ccc(OCC(=O)O)cc3)NC(=O)[C@H](Cc3ccc(-c4ccccc4)cc3)NC(=O)[C@H](Cc3ccc(OCC(=O)O)cc3)NC2=O)c1` [Compound 1668] ({CH2CO}-NY(Carboxymethyl)D[Phe(3-Me)]Y(Carboxymethyl)[Bip]Y(Carboxymethyl)[NMeA][dL][Dab][Cha]V[Orn]C-NH2; thioether N-14), for which the IC50 stood at 0.05 µM.

Turning to `CCNC(=O)[C@H](CCN)NC(=O)[C@@H]1CSCC(=O)N[C@@H](Cc2ccncc2)C(=O)N[C@@H](Cc2cccc(C#N)c2)C(=O)N[C@@H](CC(=O)O)C(=O)N[C@@H](Cc2cccc(C)c2)C(=O)N[C@@H](Cc2cccc(F)c2)C(=O)N[C@@H](Cc2ccc(-c3ccccc3)cc2)C(=O)N[C@@H](Cc2ccc(OCC(=O)O)cc2)C(=O)N(C)[C@@H](C)C(=O)N[C@H](CC(C)C)C(=O)N[C@@H](CCN)C(=O)N[C@@H](CC2CCCCC2)C(=O)N[C@@H](C(C)(C)O)C(=O)N[C@@H](CO)C(=O)N1` [Compound 1843] ({CH2CO}-[4Pal][Phe(3-CN)]D[Phe(3-Me)][Phe(3-F)][Bip]Y(Carboxymethyl)[NMeA][dL][Dab][Cha][Val(3-OH)]SC[Dab]-NHEt; thioether N-14), the IC50 was determined as 0.01 µM.

For `CCC(C)[C@@H]1NC(=O)[C@H](Cc2ccc(-c3ccccc3)cc2)NC(=O)[C@H](C(C)C)NC(=O)[C@H](Cc2c[nH]c3ccccc23)NC(=O)[C@H](CC(=O)O)NC(=O)[C@H](Cc2ccc(O)cc2)NC(=O)[C@H](CCN)NC(=O)CSC[C@@H](C(=O)NC(C(N)=O)C2CCOCC2)NC(=O)[C@H](C(C)O)NC(=O)[C@H](C(C)(C)O)NC(=O)[C@H](CC2CCCCC2)NC(=O)[C@H](CC(N)=O)NC(=O)[C@@H](CC(C)C)NC(=O)[C@H](C)N(C)C1=O` (stereo partly drawn) [Compound 2175] ({CH2CO}-[Dab]YDWV[Bip][Ile(3ξ)][NMeA][dL]N[Cha][Val(3-OH)][Thr(3ξ)]C[X49]-NH2; thioether N-14), the IC50 came to 0.23 µM.

Turning to `CC(C)C[C@@H]1NC(=O)[C@H](CCCNC(=N)N)NC(=O)[C@@H](CC(C)C)NC(=O)[C@H](C)N(C)C(=O)[C@H](C(C)C)NC(=O)[C@H](Cc2ccc(-c3ccccc3)cc2)NC(=O)[C@H](C(C)C)NC(=O)[C@H](Cc2cccc(C(F)(F)F)c2)NC(=O)[C@H](CC(=O)O)NC(=O)[C@H](Cc2ccc(O)cc2)NC(=O)[C@H](CC(N)=O)NC(=O)CSC[C@@H](C(=O)N[C@@H](C)C(N)=O)NC(=O)[C@H]([C@@H](C)O)NC(=O)[C@H](C(C)C)NC1=O` [Compound 1291] ({CH2CO}-NYD[Phe(3-CF3)]V[Bip]V[NMeA][dL]RLVTCA-NH2; thioether N-14), the IC50 came out at 0.02 µM.

As for `CC(C)C[C@@H]1NC(=O)[C@H](CCN)NC(=O)[C@@H](CC(C)C)NC(=O)[C@H](C)N(C)C(=O)[C@H](CCCNC(=N)N)NC(=O)[C@H](Cc2ccc(-c3ccccc3)cc2)NC(=O)[C@H](C(C)C)NC(=O)[C@H](Cc2c[nH]c3ccccc23)NC(=O)[C@H](CC(=O)O)NC(=O)[C@H](CCc2ccncc2)NC(=O)[C@H](CC(N)=O)NC(=O)CSC[C@@H](C(=O)N[C@@H](C)C(N)=O)NC(=O)[C@H]([C@@H](C)O)NC(=O)[C@H](C(C)C)NC1=O` [Compound 1352] ({CH2CO}-N[h4Pal]DWV[Bip]R[NMeA][dL][Dab]LVTCA-NH2; thioether N-14), the IC50 was determined as 0.01 µM.

In the case of `CC(C)C[C@@H]1NC(=O)[C@H](Cc2c[nH]c3ccccc23)NC(=O)[C@H](CC(=O)O)NC(=O)[C@H](Cc2ccncc2)NC(=O)[C@H](Cc2ccc(OCC(=O)O)cc2)NC(=O)CSC[C@@H](C(=O)N[C@@H](CCN)C(N)=O)NC(=O)[C@H](CO)NC(=O)[C@H](C(C)C)NC(=O)[C@H](CC2CCCCC2)NC(=O)[C@H](CCN)NC(=O)[C@@H](CC(C)C)NC(=O)[C@H](C)N(C)C(=O)[C@H](Cc2ccc(O)cc2)NC(=O)[C@H](Cc2ccc(-c3ccccc3)cc2)NC1=O` [Compound 1908] ({CH2CO}-Y(Carboxymethyl)[4Pal]DWL[Bip]Y[NMeA][dL][Dab][Cha]VSC[Dab]-NH2; thioether N-14), the IC50 was 0.04 µM.

For `Cc1cccc(C[C@@H]2NC(=O)[C@H](CC(=O)O)NC(=O)[C@H](Cc3ccc(C(=O)O)cc3)NC(=O)[C@H](CN)NC(=O)CSC[C@@H](C(=O)N[C@@H](C)C(N)=O)NC(=O)[C@H]([C@@H](C)O)NC(=O)[C@H](C(C)C)NC(=O)[C@H](CC(C)C)NC(=O)[C@H](CCN)NC(=O)[C@@H](CC(C)C)NC(=O)[C@H](C)N(C)C(=O)[C@H](C(C)C)NC(=O)[C@H](Cc3ccc(-c4ccccc4)cc3)NC(=O)[C@H](C(C)C)NC2=O)c1` [Compound 1415] ({CH2CO}-[Dap][Phe(4-COOH)]D[Phe(3-Me)]V[Bip]V[NMeA][dL][Dab]LVTCA-NH2; thioether N-14), the 50% inhibitory concentration (IC50) was found to be 0.04 µM.

For the compound `CC(C)C[C@@H]1NC(=O)[C@H](Cc2c[nH]c3ccccc23)NC(=O)[C@H](CC(=O)O)NC(=O)[C@H](Cc2ccc(O)cc2)NC(=O)[C@H](Cc2ccccc2)NC(=O)CSC[C@@H](C(=O)N[C@@H](C)C(N)=O)NC(=O)[C@H](CO)NC(=O)[C@H](CCCCN)NC(=O)[C@H](CC(C)C)NC(=O)[C@H](CC(N)=O)NC(=O)[C@@H](CC(C)C)NC(=O)[C@H](C)N(C)C(=O)[C@H](C(C)C)NC(=O)[C@H](Cc2ccc(-c3ccccc3)cc2)NC1=O` [Compound 1536] ({CH2CO}-FYDWL[Bip]V[NMeA][dL]NLKSCA-NH2; thioether N-14), the IC50 is 0.01 µM.

On to `CC(C)C[C@@H]1NC(=O)[C@H](CCN)NC(=O)[C@@H](CC(C)C)NC(=O)[C@H](C)N(C)C(=O)[C@H](C(C)C)NC(=O)[C@H](Cc2ccc(-c3ccccc3)cc2)NC(=O)[C@H](C(C)C)NC(=O)[C@H](Cc2c[nH]c3ccccc23)NC(=O)[C@H](CC(=O)O)NC(=O)[C@H](Cc2ccc(O)cc2)NC(=O)[C@H](Cc2cnc[nH]2)NC(=O)CSC[C@@H](C(=O)N[C@@H](C)C(N)=O)NC(=O)[C@H]([C@@H](C)O)NC(=O)[C@H](C(C)C)NC1=O` [Compound 1358] ({CH2CO}-HYDWV[Bip]V[NMeA][dL][Dab]LVTCA-NH2; thioether N-14), for which the IC50 came to 0.01 µM.

Consider `CC(C)C[C@@H]1NC(=O)[C@H](CCCN)NC(=O)[C@@H](CC(C)C)NC(=O)[C@H](C)N(C)C(=O)[C@H](CCCNC(=N)N)NC(=O)[C@H](Cc2ccc(-c3ccccc3)cc2)NC(=O)[C@H](C(C)C)NC(=O)[C@H](Cc2c[nH]c3ccccc23)NC(=O)[C@H](CC(=O)O)NC(=O)[C@H](Cc2ccc(OCC(=O)O)cc2)NC(=O)[C@H](CC(N)=O)NC(=O)CSC[C@@H](C(=O)N[C@@H](C)C(N)=O)NC(=O)[C@H]([C@@H](C)O)NC(=O)[C@H](C(C)C)NC1=O` [Compound 1152] ({CH2CO}-NY(Carboxymethyl)DWV[Bip]R[NMeA][dL][Orn]LVTCA-NH2; thioether N-14), for which the IC50 came to 0.08 µM.

With `CC(C)C[C@@H]1NC(=O)[C@H](CCCNC(=N)N)NC(=O)[C@@H](CC(C)C)NC(=O)[C@H](C)N(C)C(=O)[C@H](CCCNC(=N)N)NC(=O)[C@H](Cc2ccc(-c3ccccc3)cc2)NC(=O)[C@H](C(C)C)NC(=O)[C@H](Cc2cccc(C(F)(F)F)c2)NC(=O)[C@H](CC(=O)O)NC(=O)[C@H](Cc2ccc(O)cc2)NC(=O)[C@H](CC(N)=O)NC(=O)CSC[C@@H](C(=O)N[C@@H](C)C(N)=O)NC(=O)[C@H]([C@@H](C)O)NC(=O)[C@H](C(C)C)NC1=O` [Compound 1198] ({CH2CO}-NYD[Phe(3-CF3)]V[Bip]R[NMeA][dL]RLVTCA-NH2; thioether N-14), the half-maximal inhibitory concentration (IC50) was 0.06 µM.

`CC(C)C[C@@H]1NC(=O)[C@H](CCN)NC(=O)[C@@H](CC(C)C)NC(=O)[C@H](Cc2ccc(O)cc2)N(C)C(=O)[C@H](C(C)C)NC(=O)[C@H](Cc2ccc(-c3ccccc3)cc2)NC(=O)[C@H](C(C)C)NC(=O)[C@H](Cc2c[nH]c3ccccc23)NC(=O)[C@H](CC(=O)O)NC(=O)[C@H](Cc2ccc(O)cc2)NC(=O)[C@H](CC(N)=O)NC(=O)CSC[C@@H](C(=O)N[C@@H](C)C(N)=O)NC(=O)[C@H]([C@@H](C)O)NC(=O)[C@H](C(C)C)NC1=O` [Compound 1364] ({CH2CO}-NYDWV[Bip]V[NMeY][dL][Dab]LVTCA-NH2; thioether N-14): the IC50 came out at 0.01 µM.

For the compound `Cc1cccc(C[C@@H]2NC(=O)[C@H](CC(=O)O)NC(=O)[C@H](Cc3ccc(O)cc3)NC(=O)[C@H](CC(N)=O)NC(=O)CSC[C@@H](C(=O)N[C@@H](C)C(N)=O)NC(=O)[C@H]([C@@H](C)O)NC(=O)[C@H](C(C)C)NC(=O)[C@H](CC(C)C)NC(=O)[C@H](CCN)NC(=O)[C@@H](CC(C)C)NC(=O)[C@H](C)N(C)C(=O)[C@H](CCCNC(N)=O)NC(=O)[C@H](Cc3ccc(-c4ccccc4)cc3)NC(=O)[C@H](C(C)C)NC2=O)c1` [Compound 1230] ({CH2CO}-NYD[Phe(3-Me)]V[Bip][Cit][NMeA][dL][Dab]LVTCA-NH2; thioether N-14), the IC50 was found to be 0.01 µM.

For the compound `CC(C)C[C@@H]1NC(=O)[C@H](CCCNC(=N)N)NC(=O)[C@@H](CC(C)C)NC(=O)[C@H](C)N(C)C(=O)[C@H](CCCNC(=N)N)NC(=O)[C@H](Cc2ccc(-c3ccccc3)cc2)NC(=O)[C@H](C(C)C)NC(=O)[C@H](Cc2c[nH]c3ccccc23)NC(=O)[C@H](CC(=O)O)NC(=O)[C@H](Cc2ccc(O)cc2)NC(=O)[C@H](CC(N)=O)NC(=O)CSC[C@@H](C(=O)N[C@@H](C)C(N)=O)NC(=O)[C@H](CO)NC(=O)[C@H](C(C)C)NC1=O` [Compound 1033] ({CH2CO}-NYDWV[Bip]R[NMeA][dL]RLVSCA-NH2; thioether N-14), the IC50 came to 0.03 µM.

On to `CC(C)C[C@@H]1NC(=O)[C@H](CCCNC(=N)N)NC(=O)[C@@H](CC(C)C)NC(=O)[C@H]2CCCN2C(=O)[C@H](CCCNC(=N)N)NC(=O)[C@H](Cc2ccc(-c3ccccc3)cc2)NC(=O)[C@H](C(C)C)NC(=O)[C@H](Cc2c[nH]c3ccccc23)NC(=O)[C@H](CC(=O)O)NC(=O)[C@H](Cc2ccc(O)cc2)NC(=O)[C@H](CC(N)=O)NC(=O)CSC[C@@H](C(=O)N[C@@H](C)C(N)=O)NC(=O)[C@H]([C@@H](C)O)NC(=O)[C@H](C(C)C)NC1=O` [Compound 1214] ({CH2CO}-NYDWV[Bip]R[dP][dL]RLVTCA-NH2; thioether N-14), for which the IC50 came to 0.05 µM.
